Assay results from US10626145B2, “Peptide with anti-obesity and anti-diabetes activity and use thereof” (CAREGEN CO., LTD., priority 2015, dated 2020).

Tests used:
[1] = system: DB/DB diabetes-induced mice; experiment: Blood sugar over time in DB/DB diabetes-induced mice given individual peptides; assay type: in vivo, mouse; settings: starved 16 hours, fed 30 min, then peptide administered
Experimental: In addition, after starvation for 16 hours, DB/DB diabetes-induced mice were fed for 30 min and then administered with the peptides. Blood sugar levels were measured over times.

[2] = system: aP2; experiment: RT-PCR expression of adipogenic marker aP2 in 3T3-L1; assay type: cell-based, mouse; settings: for expression level of adipogenic marker aP2 (individual peptides): 3T3-L1, incubated for three days
Experimental: (§1) 3T3-L1 cells (pre-adipocytes) were seeded at a density of 3×10^5 cells/well into 6-well plates. […] Thereafter, the cells were harvested and treated with an RNA extraction solution (Easy Blue, Intron) to prepare RNA from which cDNA was then synthesized using an RT premix (Intron). PCR was performed using primers for […] markers (PPARγ, ACC, and aP2), and a PCR premix (Intron).
(§2) Target-specific primer sequences for PCR of adipogenic markers were as follows: PPARγ forward primer sequence, 5′-[…]-3′ and PPARγ reverse primer, 5′-[…]-3′ (annealing temperature, 60° C.); ACC forward primer sequence, 5′-[…]-3′ and ACC reverse primer, 5′-[…]-3′ (annealing temperature, 60° C.); aP2 forward primer sequence, 5′-[…]-3′ and aP2 reverse primer, 5′-[…]-3′ (annealing temperature, 60° C.)
(§3) PCR products were each loaded in a volume of 5 μl into a 1% agarose gel, and electrophoresed, followed by identifying bands in a Gel-Doc.

[3] = system: 3T3-L1 cells (pre-adipocytes); experiment: Suppression of lipid accumulation in pre-adipocytes (Oil Red O staining); assay type: cell-based, mouse; settings: 3T3-L1, various concentrations, differentiation induced for 10 days
Experimental: The pre-adipocytes 3T3-L1 cells were grown to confluence and then incubated for two days with various concentrations of the peptides in a differentiation medium containing 10 μg/ml insulin, 0.1 μM dexamethasone, and 0.5 μM IBMX. The medium was exchanged every two days with a medium containing 10 μg/ml insulin. After differentiation was induced for 10 days, the generation of droplet in the cells was examined by Oil Red O staining. The prepared 3T3-L1 adipocytes were washed with PBS, fixed with 3.7% formalin for one hour, and washed with 60% isopropanol. The resulting cells were dyed with Oil Red O reagent at room temperature for 20 min. After removal of the Oil Red O reagent, the cells were washed three times with distilled water, and observed under a phase-contrast microscope. For quantitative analysis, fats were extracted from the cells using 100% isopropanol, and the cells were transferred in an amount of 200 μl/well into 96-well plates and measured for optical density at 500 nm using an ELISA reader.

[4] = system: IGF-1; experiment: Western blotting of IGF-1 expression in 3T3-L1; assay type: cell-based, mouse; settings: 3T3-L1, 10 ng-1 μg/ml, 14 days; dose-dependent
Experimental: (§4) 3T3-L1 cells (pre-adipocytes) were seeded at a density of 3×10^5 cells/well into 6-well plates and grown for 24 hours. Subsequently, the cells were incubated with various concentrations (10 ng-1 μg/ml) of the peptides for 14 days in a 37° C. incubator. Proteins were extracted from cell lysates which were obtained by treatment with cell lysis buffer, quantitatively analyzed, and subjected to Western blotting using an anti-IGF-1 antibody, which is an antibody against the lipolytic marker, and an insulin antibody (Santa Cruz Biotechnology, USA).

[5] = system: insulin; experiment: Western blotting of insulin expression in 3T3-L1; assay type: cell-based, mouse; settings: 3T3-L1, 10 ng-1 μg/ml, 14 days; dose-dependent
Experimental: as §4

[6] = system: ACC; experiment: RT-PCR expression of adipogenic marker ACC in 3T3-L1; assay type: cell-based, mouse; settings: 3T3-L1, three days; complex 0.1, 1, 10 μg/ml; TNFα 100 ng/ml
Experimental: as §1, §2, §3

[7] = system: PPARγ; experiment: RT-PCR expression of adipogenic marker PPARγ in 3T3-L1; assay type: cell-based, mouse; settings: 3T3-L1, three days; complex 0.1, 1, 10 μg/ml; TNFα 100 ng/ml
Experimental: as §1, §2, §3

[8] = system: DIO (diets induced obesity) models; experiment: Weight loss and adipogenesis suppression in high-fat diet-fed animal (DIO), 12 weeks; assay type: in vivo, mouse; settings: for Weight: intraperitoneal injection; for Weight (%): relative to initial weight
Experimental: Models DIO (diets induced obesity), which had become obese by feeding high-fat diets thereto, were used for anti-obesity experiments in which TNFα 5 μg/ml was used as a positive control. For a control, a general diet, not a high-fat diet, was fed. In the experiment, a high-fat diet was fed for 12 weeks while the peptide complex or the positive control was applied. During the experiment, the weight was monitored. TNFα and the anti-obesity compounds were intraperitoneally injected at PM 3-4 o'clock every week for 12 weeks. Weights and meal sizes were measured just before the initial injection and then regularly at intervals of one week. Blood samples were taken from tail veins after the experiments of drug injection and measured for blood sugar levels, using Accu-Check Active (Roche) and analyzed for cholesterol levels, using Cholesterol calculation Kit (BioVision). Adipose tissues are divided into white fat and brown fat by color and into subcutaneous fat, abdominal fat, mesentery fat (visceral fat), and epididymal fat by tissue. After lipoectomy, the fats thus obtained from the tissues were observed. For histological examination, the fats were fixed with 10% neutral buffered formalin, embedded in paraffin blocks, cut into 5 μm-thick sections, and dyed with hematoxylin and eosin. To analyze the phosphorylation of the lipolytic marker HSL, fluorescent staining was carried out with an anti-pHSL antibody. A tissue sample was made, mounted on glycerine jell mounting media, and covered with a cover glass. The tissues were observed under a microscope (Nikon, TS100), with a built-in digital camera taking images thereof.

Question: ASYLPHPWFS (Peptide 5) [SEQ ID NO: 5] was tested. Which “blood sugar levels over time” value [1] did it give?
Answer: decrease in a time-dependent manner

Question: What about the “expression level of adipogenic marker aP2 (individual peptides)” value [2] of the same substance?
Answer: decreased

Question: What about the “extent of fat (lipid) accumulation in cells, Oil red O staining” value [3] of the same substance?
Answer: decreased

Question: What does the source list for KGASTGWMA (Peptide 3) [SEQ ID NO: 3]?
Answer: blood sugar levels over time [1]: decrease in a time-dependent manner; expression level of adipogenic marker aP2 (individual peptides) [2]: decreased; extent of fat (lipid) accumulation in cells, Oil red O staining [3]: decreased

Question: For “NH2-Leu-Lys-Thr-Arg-Asn-COOH (H-LKTRN-OH) [SEQ ID NO: 1]”, which “blood sugar levels over time” value [1] is on record?
Answer: decrease in a time-dependent manner

Question: And the “expression level of adipogenic marker aP2 (individual peptides)” value [2]?
Answer: decreased

Question: What about the “extent of fat (lipid) accumulation in cells, Oil red O staining” value [3] of the same substance?
Answer: decreased

Question: For SDLRRLEMYS (Peptide 7) [SEQ ID NO: 7], which “expression of IGF-1” value [4] is on record?
Answer: increased

Question: What about the expression of insulin [5] of the same substance?
Answer: increased

Question: Which results are given for TNFα?
Answer: expression of adipogenic marker ACC [6]: decrease; expression of adipogenic marker PPARγ [7]: decrease; expression of adipogenic marker aP2 ([2]; 3T3-L1, three days, complex 0.1, 1, 10 μg/ml, TNFα 100 ng/ml): decrease; Weight ([8]; 0 w): 22.41 g; Weight (%) ([8]; 0 w): 100%; Weight ([8]; 1 w): 23 g; Weight (%) ([8]; 1 w): 102.6%; Weight ([8]; 2 w): 26.12 g; Weight (%) ([8]; 2 w): 116.6%; Weight ([8]; 3 w): 27.45 g; Weight (%) ([8]; 3 w): 122.5%; Weight ([8]; 4 w): 30.51 g; Weight (%) ([8]; 4 w): 136.1%; Weight ([8]; 5 w): 32.76 g; Weight (%) ([8]; 5 w): 146.2%; Weight ([8]; 6 w): 33.49 g; Weight (%) ([8]; 6 w): 149.4%; Weight ([8]; 7 w): 35.14 g; Weight (%) ([8]; 7 w): 156.8%; Weight ([8]; 8 w): 37.15 g; Weight (%) ([8]; 8 w): 165.8%; Weight ([8]; 9 w): 38.97 g; Weight (%) ([8]; 9 w): 173.9%; Weight ([8]; 10 w): 40.39 g; Weight (%) ([8]; 10 w): 180.2%; Weight ([8]; 11 w): 41.35 g; Weight (%) ([8]; 11 w): 184.5%; Weight ([8]; 12 w): 43.91 g; Weight (%) ([8]; 12 w): 195.9%
